Here are results for one molecule from patent publication US20160115225A1, “Methods of Reducing Methylglyoxal (MGO) Modification of Recombinant Proteins in Cell Culture” (AbbVie Inc., priority 2014, published 2016).

For assay [1], the system named is adalimumab producing cell line 1. Nature of the assay: Lys-C peptide mapping for MGO modification of adalimumab, cell line 1. The class given is cell-based. Particulars: Example 3. An excerpt:
Typical trypsin digestion for peptide mapping cleaves a denatured, reduced and alkylated protein at the carboxyl side of the two basic amino acids, lysine and arginine. Methylglyoxal (MGO) is a small molecule metabolite derived as a glycolysis byproduct which can modify arginine residues. A modification of an arginine prevents trypsin from cutting this site and results in a mis-cleavage. The challenge of quantifying the amount of MGO modified peptide is that, it is not compared to an equivalent non-modified peptide but rather to two parental cleaved peptides. The two parental cleaved peptides likely have different ionization potential as compared to that of the modified peptide. In order to determine a truly accurate direct measurement of an MGO-modified peptide, it is compared to its non-modified counterpart and expressed as a percentage. Using endoproteinase lysine-C as an alternative enzyme, cleavages only occur at lysine residues. The result is a direct comparison of the same peptide with and without an MGO modification, which provides a high degree of accuracy in quantifying even trace levels of the modified species.
Procedure: Samples were dilated to a nominal concentration of 4 mg/mL. 8 M guanidine-HCl was added to the sample in a 3:1 ratio resulting in a 1 mg/mL concentration in 6M guanidine-HCl. […] Samples were analyzed by LC/MS peptide mapping. […] Eluting peaks were monitored using a Thermo Scientific LTQ-Orbitrap Mass Spectrometer. Specific mass traces were extracted for both modified and non-modified peptides in order to accurately quantify the total amount of MGO modification at each site. Mass spectra were also analyzed for the specific region of the chromatogram to confirm the peptide identity.
The cells were grown to maximum viable cell densities (VCD) in the range of 10-14×10^6 cells/ml for the different conditions tested. […] Samples were subsequently analyzed using Poros A for titer and WCX-10 post protein A purification. Based on the WCX-10 chromatograms, the percentages of total peak(s) area corresponding to the acidic species were quantified. […]

Assay [2] shares this test system. The assay is described as follows: Glucose consumption of the culture, cell line 1. The class given is cell-based. How it is done: For the bioreactor (3 L Applikon) experiments (Examples 1, 2 and 3), 3 L, bioreactors (1.5 L working volume) were initiated at 35° C. (cell line 1) and 36° C. (cell line 2), 30% DO, 200 rpm, pH of 7.1. In some of the conditions, pH was ramped down to 6.8 in three days and kept at pH 6.8 thereafter. The inclusion of pH ramp for a particular condition is indicated by the final pH in the experimental design. If the final pH is 7.1, then it indicates no pH ramp was performed, whereas if the final pH is 6.8, a pH ramp was performed on day 3 from pH 7.1 to pH 6.8. In some of the conditions, a temperature shift was performed. When temperature shift was performed, the temperature was lowered to 33° C. Again, the conditions where such a temperature shift was performed can be identified from the final temperature in the experimental design. Cultures were run in extended batch mode with the addition of a desired amount of 40% glucose stock solution was fed based on glucose measurements.
To assess if this reduction in MGO modification in the test conditions also corresponded to lower glucose consumption, the specific glucose consumption rate was calculated across the two phases of culture: average over day 0-day 5 and average over day 5-10 (period post temperature shift) (FIG. 4b). The specific glucose consumption rate in the conditions with 2DDG supplementation was lower in both phases. […] In the period post the temperature shift, up to 50% reduction in specific glucose consumption rate relative to that in the control was observed. Thus, a clear correlation has been observed between reduced glucose consumption and the extent of MGO modification of the peptides.
To further assess the applicability of this strategy, the cumulative glucose consumption levels were also evaluated for these conditions in this study (FIG. 6b). This was calculated by using daily glucose concentration measurements via the offline analyzer and by accounting for glucose feeds when added. […]

In the case of `O=CC[C@@H](O)[C@H](O)[C@H](O)CO` [Test 2DDG, 2-Deoxy-D-Glucose], the MGO modification in assay [1] (2DDG 0.25 g/l alone, day 11 harvest, control 32.01%) is 18.03%; in assay [1] (2DDG and temperature shift combined with arginine supplementation and/or lower pH), “substantial reduction”. For the same molecule, in assay [1] (2DDG, temperature shift, lower pH and arginine supplementation all combined, day 11 harvest, control 32.01%), the MGO protein modification is listed as 0.02%. Further, the “specific glucose consumption rate” value in assay [2] (Example 2, 2DDG 0.25 g/l, day 0-day 5 and day 5-10, versus control) is reported as “lower”. Besides, the glucose consumption result in assay [2] (Example 3, 2DDG supplementation 0.25 g/l) is listed as “significant reduction”.
